Source: US7098340B2, “Benzyl sulfonamide derivatives” (Warner Lambert Company LLC, priority 2003, dated 2006)

The compounds below were run against T1, androgen receptor (Homo sapiens, UniProt P10275) (assay: AR Antagonist Cell Assay (MMTV-luciferase reporter, DHT-stimulated)). Conditions: MDA-MB453-MMTV clone 54-19 cells; antagonism of 100 pM DHT, 17 hr, luciferase readout.
T1 sequence (P10275 1-920 Q868H): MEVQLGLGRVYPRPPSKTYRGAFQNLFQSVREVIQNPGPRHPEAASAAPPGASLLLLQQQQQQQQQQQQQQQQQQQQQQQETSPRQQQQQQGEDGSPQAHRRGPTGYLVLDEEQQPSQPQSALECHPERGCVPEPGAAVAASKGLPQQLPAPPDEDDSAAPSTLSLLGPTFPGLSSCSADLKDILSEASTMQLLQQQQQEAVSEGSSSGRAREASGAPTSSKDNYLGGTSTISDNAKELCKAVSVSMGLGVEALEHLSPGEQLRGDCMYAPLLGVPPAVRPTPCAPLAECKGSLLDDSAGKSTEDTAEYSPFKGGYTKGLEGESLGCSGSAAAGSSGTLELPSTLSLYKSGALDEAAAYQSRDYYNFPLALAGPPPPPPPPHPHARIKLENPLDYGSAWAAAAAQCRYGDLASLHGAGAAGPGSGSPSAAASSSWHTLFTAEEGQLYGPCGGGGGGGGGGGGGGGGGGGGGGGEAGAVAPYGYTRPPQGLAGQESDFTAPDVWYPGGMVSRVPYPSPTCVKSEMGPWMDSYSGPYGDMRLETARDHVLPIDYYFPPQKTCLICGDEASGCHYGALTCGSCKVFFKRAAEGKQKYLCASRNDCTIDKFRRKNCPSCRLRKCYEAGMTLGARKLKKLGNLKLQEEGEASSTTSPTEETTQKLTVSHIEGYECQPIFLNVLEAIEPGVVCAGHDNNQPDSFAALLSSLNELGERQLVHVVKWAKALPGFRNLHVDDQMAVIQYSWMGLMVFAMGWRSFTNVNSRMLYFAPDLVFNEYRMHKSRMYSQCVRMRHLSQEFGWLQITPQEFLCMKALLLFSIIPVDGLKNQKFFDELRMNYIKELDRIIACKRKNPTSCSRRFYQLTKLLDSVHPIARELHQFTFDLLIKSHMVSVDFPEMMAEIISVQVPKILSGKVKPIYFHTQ
Format: cell-based
Experimental: The compounds ability to antagonize the effects of androgen on the androgen receptor were determined in the protocol described immediately below.
Experimental Procedure for AR Antagonist Cell Assay
Cell line: MDA-MB453-MMTV clone 54–19. This cell line is a stable transfected cell line with MDA-MB453 cell background (human breast tumor cell expressing high level of androgen receptor). A MMTV minimal promoter containing ARE was first cloned in front of a firefly luciferase reporter gene. Then the cascade was cloned into transfection vector pUV120puro. Electroporation method was used for transfecting MDA-MB-453 cell. Puromycin resistant stable cell line was selected.
Cell Culture Media and Reagents:
Culture medium: DMEM (high glucose, Gibco cat #: 11960-044), 10% FBS, and 1% L-glutamine
Plating medium: DMEM (phenol red free), 10% charcoal treated HyClone serum, 1% L-glutamine
Assay medium: DMEM (phenol red free), 1% charcoal treated HyClone serum, 1% L-glutamine, and 1% penicillin/streptomycin
3× luciferase buffer: 2% beta-mercaptoethanol, 0.6% ATP, 0.0135% luciferine in cell lysis buffer
• 1. Cells are maintained in culture medium, splitting cells when they reach 80–90% confluence • 2. To test compounds, 10,000 cells/well are plated to opaque 96 cell culture plate in 100 ul/well plating medium, culture for overnight at 37° C. in cell culture incubator • 3. Carefully remove plating medium, then add 80 ul/well of pre-warmed assay medium, add 10 ul/well testing compound (final concentration at 10 uM or 1 uM), incubate at 37° C. for 30 minutes • 4. Add 10 ul/well freshly prepared DHT (final concentration at 100 pM) to each well, incubate at 37° C. for 17 hr (overnight) • 5. Add 50 ul/well 3× luciferase buffer, incubate at room temperature for 5 minutes, then count on Luminometer.
The fold induction over background by 100 pM DHT in the absence of testing compounds is standardized as 100% and experimental result is expressed as percentage of inhibition by testing compounds.

| Compound | IC50 [µM] |
| --- | --- |
| CCCCN(CC)S(=O)(=O)c1ccc(Cc2ccc3[nH]c(=O)cc(C(F)(F)F)c3c2)cc1 [Example 6] | > 10 |
| O=c1cc(C(F)(F)F)c2cc(Cc3ccc(S(=O)(=O)N(CCO)Cc4ccccc4)cc3)ccc2[nH]1 [Example 9, N-Benzyl-N-(2-hydroxyethyl)-4-(2-oxo-4-trifluoromethyl-1,2-dihydroquinolin-6-ylmethyl)benzenesulfonamide] | > 10 |
| CCCN(CC1CC1)S(=O)(=O)c1ccc(Cc2ccc3[nH]c(=O)cc(C(F)(F)F)c3c2)cc1 [Example 9A, N-Cyclopropylmethyl-4-(2-oxo-trifluoromethyl-1,2-dihydroquinolin-6-ylmethyl)-N-propylbenzenesulfonamide] | 6.29 |
| CCCCN(C)S(=O)(=O)c1ccc(Cc2ccc3[nH]c(=O)cc(C(F)(F)F)c3c2)cc1 [Example 9B, N-Butyl-N-methyl-4-(2-oxo-4-trifluoromethyl-1,2-dihydroquinolin-6-ylmethyl)benzenesulfonamide] | > 10 |
| CN(CCC#N)S(=O)(=O)c1ccc(Cc2ccc3[nH]c(=O)cc(C(F)(F)F)c3c2)cc1 [Example 10, N-(2-Cyanoethyl)-N-methyl-4-(2-oxo-4-trifluoromethyl-1,2-dihydroquinolin-6-ylmethyl)benzenesulfonamide] | > 10 |
| O=c1cc(C(F)(F)F)c2cc(Cc3ccc(S(=O)(=O)N(Cc4ccccc4)Cc4ccccc4)cc3)ccc2[nH]1 [Example 11, N,N-Dibenzyl-4-(2-oxo-4-trifluoromethyl-1,2-dihydroquinolin-6-ylmethyl)benzenesulfonamide] | > 10 |
| COCCN(CCOC)S(=O)(=O)c1ccc(Cc2ccc3[nH]c(=O)cc(C(F)(F)F)c3c2)cc1 [Example 12, N,N-Bis(2-methoxyethyl)-4-(2-oxo-4-trifluoromethyl-1,2-dihydroquinolin-6-ylmethyl)benzenesulfonamide] | > 10 |
| CN(CCc1ccccn1)S(=O)(=O)c1ccc(Cc2ccc3[nH]c(=O)cc(C(F)(F)F)c3c2)cc1 [Example 13, N-Methyl-4-(2-oxo-4-trifluoromethyl-1,2-dihydroquinolin-6-ylmethyl)-N-(2-pyridin-2-ylethyl)benzenesulfonamide] | > 10 |
| CCc1cccc(NS(=O)(=O)c2ccc(Cc3ccc4[nH]c(=O)cc(C(F)(F)F)c4c3)cc2)c1 [Example 17, N-(3-Ethylphenyl)-4-(2-oxo-4-trifluoromethyl-1,2-dihydroquinolin-6-ylmethyl)benzenesulfonamide] | > 10 |
| O=c1cc(C(F)(F)F)c2cc(Cc3ccc(S(=O)(=O)Nc4ccc5ncccc5c4)cc3)ccc2[nH]1 [Example 19, 4-(2-Oxo-4-trifluoromethyl-1,2-dihydroquinolin-6-ylmethyl)-N-quinolin-6-ylbenzenesulfonamide] | > 10 |
| O=c1cc(C(F)(F)F)c2cc(Cc3ccc(S(=O)(=O)Nc4ccc5c(c4)CCC5)cc3)ccc2[nH]1 [Example 20, N-Indan-5-yl-4-(2-oxo-4-trifluoromethyl-1,2-dihydroquinolin-6-ylmethyl)-benzenesulfonamide] | > 10 |
| Cc1ccc(-c2ccccc2)cc1NS(=O)(=O)c1ccc(Cc2ccc3[nH]c(=O)cc(C(F)(F)F)c3c2)cc1 [Example 22, N-(4-Methylbiphenyl-3-yl)-4-(2-oxo-4-trifluoromethyl-1,2-dihydroquinolin-6-ylmethyl)-benzenesulfonamide] | > 10 |
| O=c1cc(C(F)(F)F)c2cc(Cc3ccc(S(=O)(=O)Nc4cc5ccccc5cn4)cc3)ccc2[nH]1 [Example 27, N-Isoquinolin-3-yl-4-(2-oxo-4-trifluoromethyl-1,2-dihydroquinolin-6-ylmethyl)-benzenesulfonamide] | > 10 |

Next, values leading:

| IC50 [µM] | Compound |
| --- | --- |
| > 10 | O=c1cc(C(F)(F)F)c2cc(Cc3ccc(S(=O)(=O)N[C@H]4[C@@H]5CC[C@@H](C5)[C@H]4CO)cc3)ccc2[nH]1 (stereo in doubt) [Example 88, N-(3-Hydroxymethyl-bicyclo[2.2.1]hept-2-yl)-4-(2-oxo-4-trifluoromethyl-1,2-dihydroquinolin-6-ylmethyl)-benzenesulfonamide] |
| 5.77 | O=c1cc(C(F)(F)F)c2cc(Cc3ccc(S(=O)(=O)NCC4CCCC[C@H]4O)cc3)ccc2o1 (stereo in doubt) [Example 177, N-(2-Hydroxycyclohexylmethyl)-4-(2-oxo-4-trifluoromethyl-2H-chromen-6-ylmethyl)benzenesulfonamide] |
| > 10 | O=c1cc(C(F)(F)F)c2cc(Cc3ccc(S(=O)(=O)N(CCO)C4CCCCC4)cc3)ccc2[nH]1 [Example 4, N-Cyclohexyl-N-(2-hydroxyethyl)-4-(2-oxo-4-trifluoromethyl-1,2-dihydroquinolin-6-ylmethyl)benzenesulfonamide] |
| > 10 | CCN(Cc1ccncc1)S(=O)(=O)c1ccc(Cc2ccc3[nH]c(=O)cc(C(F)(F)F)c3c2)cc1 [Example 5, N-Ethyl-4-(2-oxo-4-trifluoromethyl-1,2-dihydroquinolin-6-ylmethyl)-N-pyridin-4-ylmethylbenzenesulfonamide] |
| > 10 | CC(C)N(C)S(=O)(=O)c1ccc(Cc2ccc3[nH]c(=O)cc(C(F)(F)F)c3c2)cc1 [Example 7, N-Isopropyl-N-methyl-4-(2-oxo-4-trifluoromethyl-1,2-dihydroquinolin-6-ylmethyl)benzenesulfonamide] |
| 3.25 | CCCN(CCO)S(=O)(=O)c1ccc(Cc2ccc3[nH]c(=O)cc(C(F)(F)F)c3c2)cc1 [Example 8, N-(2-Hydroxyethyl)-4-(2-oxo-4-trifluoromethyl-1,2-dihydroquinolin-6-ylmethyl)-N-propylbenzenesulfonamide] |
| 2.8 | C#Cc1ccc(NS(=O)(=O)c2ccc(Cc3ccc4[nH]c(=O)cc(C(F)(F)F)c4c3)cc2)cc1 [Example 15, N-(4-Ethynylphenyl)-4-(2-oxo-4-trifluoromethyl-1,2-dihydroquinolin-ylmethyl)benzenesulfonamide] |
| 2.02 | N#Cc1cccc(NS(=O)(=O)c2ccc(Cc3ccc4[nH]c(=O)cc(C(F)(F)F)c4c3)cc2)c1 [Example 16, N-(3-Cyanophenyl)-4-(2-oxo-4-trifluoromethyl-1,2-dihydroquinolin-6-ylmethyl)-benzenesulfonamide] |
| 3.16 | O=c1cc(C(F)(F)F)c2cc(Cc3ccc(S(=O)(=O)Nc4ccccc4Cl)cc3)ccc2[nH]1 [Example 18, N-(2-Chlorophenyl)-4-(2-oxo-4-triftuoromethyl-1,2-dihydroquinolin-6-ylmethyl)-benzenesulfonamide] |
| 9.09 | CC(=O)c1cccc(NS(=O)(=O)c2ccc(Cc3ccc4[nH]c(=O)cc(C(F)(F)F)c4c3)cc2)c1 [Example 21, N-(3-Acetylphenyl)-4-(2-oxo-4-trifluoromethyl-1,2-dihydroquinolin-6-ylmethyl)benzenesulfonamide] |
| 1.67 | CC(O)c1cccc(NS(=O)(=O)c2ccc(Cc3ccc4[nH]c(=O)cc(C(F)(F)F)c4c3)cc2)c1 (centres unmarked) [Example 23, N[-3-(1-Hydroxyethyl)phenyl]-4-(2-oxo-4-trifluoromethyl-1,2-dihydroquinolin-6-ylmethyl)-benzenesulfonamide] |
| 1.12 | Cc1ccc(F)cc1NS(=O)(=O)c1ccc(Cc2ccc3[nH]c(=O)cc(C(F)(F)F)c3c2)cc1 [Example 25] |
| 1.97 | O=c1cc(C(F)(F)F)c2cc(Cc3ccc(S(=O)(=O)Nc4ccc(Cl)cc4)cc3)ccc2[nH]1 [Example 26, N-(4-Chlorophenyl)-4-(2-oxo-4-trifluoromethyl-1,2-dihydroquinolin-6-ylmethyl)-benzenesulfonamide] |
